Key:
Kdr = Kdr (Homo sapiens, UniProt P35968); assay: Kinase activity assay, Kdr
MAP4K4 = MAP4K4 (Homo sapiens, UniProt O95819); assay: Kinase activity assay, MAP4K4
B-Raf = B-Raf (Homo sapiens, UniProt P15056); assay: Kinase activity assay, B-Raf; assay type: biochemical; conditions: read-out: activity toward kinase B-Raf, IC50
B-Raf V600E = B-Raf V600E (Homo sapiens, UniProt P15056, V600E); assay: Kinase activity assay, B-Raf V600E; assay type: biochemical; conditions: read-out: activity toward kinase B-Raf V600E, IC50
Chain of B-Raf V600E (P15056 whole entry V600E): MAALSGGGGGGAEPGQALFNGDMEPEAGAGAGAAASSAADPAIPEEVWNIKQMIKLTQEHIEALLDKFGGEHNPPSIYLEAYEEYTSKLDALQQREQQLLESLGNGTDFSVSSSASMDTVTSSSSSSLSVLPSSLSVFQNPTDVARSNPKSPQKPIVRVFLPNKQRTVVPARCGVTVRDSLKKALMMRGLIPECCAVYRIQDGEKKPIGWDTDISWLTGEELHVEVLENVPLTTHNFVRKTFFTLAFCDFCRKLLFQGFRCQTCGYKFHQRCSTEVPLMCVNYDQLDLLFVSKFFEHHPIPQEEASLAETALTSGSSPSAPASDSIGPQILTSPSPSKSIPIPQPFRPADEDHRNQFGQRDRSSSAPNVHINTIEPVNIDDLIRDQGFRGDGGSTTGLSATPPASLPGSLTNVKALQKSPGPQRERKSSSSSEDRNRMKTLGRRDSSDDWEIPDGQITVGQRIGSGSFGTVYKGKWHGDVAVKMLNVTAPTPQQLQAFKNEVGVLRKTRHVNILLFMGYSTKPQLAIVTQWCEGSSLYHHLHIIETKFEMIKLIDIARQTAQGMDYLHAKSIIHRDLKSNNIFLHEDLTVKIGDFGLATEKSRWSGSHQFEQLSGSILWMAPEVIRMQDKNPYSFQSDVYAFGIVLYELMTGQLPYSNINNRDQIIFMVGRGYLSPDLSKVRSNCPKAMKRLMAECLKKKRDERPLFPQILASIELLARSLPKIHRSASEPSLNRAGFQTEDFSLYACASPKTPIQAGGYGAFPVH

Fms = Fms (Homo sapiens, UniProt P07333); assay: Kinase activity assay, Fms
Kit = Kit (Homo sapiens, UniProt P10721); assay: Kinase activity assay, Kit
Chain of Kit (P10721 26-976): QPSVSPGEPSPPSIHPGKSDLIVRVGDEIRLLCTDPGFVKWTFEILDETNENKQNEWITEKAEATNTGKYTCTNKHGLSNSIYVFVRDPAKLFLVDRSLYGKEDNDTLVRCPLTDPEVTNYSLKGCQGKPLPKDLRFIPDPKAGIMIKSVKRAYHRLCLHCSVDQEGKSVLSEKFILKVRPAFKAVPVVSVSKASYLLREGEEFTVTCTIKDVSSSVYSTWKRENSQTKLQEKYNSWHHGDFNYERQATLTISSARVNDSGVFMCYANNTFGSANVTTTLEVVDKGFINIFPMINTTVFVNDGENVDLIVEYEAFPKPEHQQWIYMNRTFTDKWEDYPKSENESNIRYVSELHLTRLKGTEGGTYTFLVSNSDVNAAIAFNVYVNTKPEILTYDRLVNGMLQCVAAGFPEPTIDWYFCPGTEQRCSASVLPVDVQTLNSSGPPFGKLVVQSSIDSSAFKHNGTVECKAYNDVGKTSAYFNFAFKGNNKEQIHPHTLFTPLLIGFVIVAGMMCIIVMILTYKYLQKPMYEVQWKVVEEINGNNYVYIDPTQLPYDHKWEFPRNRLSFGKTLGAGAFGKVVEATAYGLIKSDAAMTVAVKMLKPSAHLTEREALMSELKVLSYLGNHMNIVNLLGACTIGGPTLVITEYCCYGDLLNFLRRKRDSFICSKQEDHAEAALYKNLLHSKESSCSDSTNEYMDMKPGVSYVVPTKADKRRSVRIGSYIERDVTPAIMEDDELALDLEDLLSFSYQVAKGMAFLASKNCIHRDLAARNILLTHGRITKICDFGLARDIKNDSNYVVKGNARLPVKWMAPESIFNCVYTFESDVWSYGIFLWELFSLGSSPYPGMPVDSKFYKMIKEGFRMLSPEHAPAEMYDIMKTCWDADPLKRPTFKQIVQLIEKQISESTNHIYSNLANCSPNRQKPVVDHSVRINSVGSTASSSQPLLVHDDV

Src = Src (Homo sapiens, UniProt P12931); assay: Kinase activity assay, Src
Chain of Src (P12931 whole entry): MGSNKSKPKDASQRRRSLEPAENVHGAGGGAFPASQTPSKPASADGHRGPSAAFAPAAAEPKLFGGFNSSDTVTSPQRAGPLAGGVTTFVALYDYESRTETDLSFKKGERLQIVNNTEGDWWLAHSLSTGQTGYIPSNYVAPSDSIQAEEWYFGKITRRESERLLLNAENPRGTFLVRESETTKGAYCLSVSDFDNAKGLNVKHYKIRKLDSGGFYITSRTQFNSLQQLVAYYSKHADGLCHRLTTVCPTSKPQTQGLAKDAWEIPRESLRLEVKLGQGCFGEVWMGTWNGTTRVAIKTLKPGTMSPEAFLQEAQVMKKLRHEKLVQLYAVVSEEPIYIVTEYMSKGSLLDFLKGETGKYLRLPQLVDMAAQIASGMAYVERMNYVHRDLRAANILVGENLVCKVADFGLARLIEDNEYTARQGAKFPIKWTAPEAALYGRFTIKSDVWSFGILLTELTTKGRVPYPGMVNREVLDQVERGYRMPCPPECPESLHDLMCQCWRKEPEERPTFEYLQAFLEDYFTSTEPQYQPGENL

C-Raf = C-Raf (Homo sapiens, UniProt P04049); assay: Kinase activity assay, C-Raf

Measured: IC50

Chain of B-Raf (P15056 whole entry): as the sequence (P15056 whole entry V600E) above, with E600V counted along it
Chain of MAP4K4 (O95819 whole entry): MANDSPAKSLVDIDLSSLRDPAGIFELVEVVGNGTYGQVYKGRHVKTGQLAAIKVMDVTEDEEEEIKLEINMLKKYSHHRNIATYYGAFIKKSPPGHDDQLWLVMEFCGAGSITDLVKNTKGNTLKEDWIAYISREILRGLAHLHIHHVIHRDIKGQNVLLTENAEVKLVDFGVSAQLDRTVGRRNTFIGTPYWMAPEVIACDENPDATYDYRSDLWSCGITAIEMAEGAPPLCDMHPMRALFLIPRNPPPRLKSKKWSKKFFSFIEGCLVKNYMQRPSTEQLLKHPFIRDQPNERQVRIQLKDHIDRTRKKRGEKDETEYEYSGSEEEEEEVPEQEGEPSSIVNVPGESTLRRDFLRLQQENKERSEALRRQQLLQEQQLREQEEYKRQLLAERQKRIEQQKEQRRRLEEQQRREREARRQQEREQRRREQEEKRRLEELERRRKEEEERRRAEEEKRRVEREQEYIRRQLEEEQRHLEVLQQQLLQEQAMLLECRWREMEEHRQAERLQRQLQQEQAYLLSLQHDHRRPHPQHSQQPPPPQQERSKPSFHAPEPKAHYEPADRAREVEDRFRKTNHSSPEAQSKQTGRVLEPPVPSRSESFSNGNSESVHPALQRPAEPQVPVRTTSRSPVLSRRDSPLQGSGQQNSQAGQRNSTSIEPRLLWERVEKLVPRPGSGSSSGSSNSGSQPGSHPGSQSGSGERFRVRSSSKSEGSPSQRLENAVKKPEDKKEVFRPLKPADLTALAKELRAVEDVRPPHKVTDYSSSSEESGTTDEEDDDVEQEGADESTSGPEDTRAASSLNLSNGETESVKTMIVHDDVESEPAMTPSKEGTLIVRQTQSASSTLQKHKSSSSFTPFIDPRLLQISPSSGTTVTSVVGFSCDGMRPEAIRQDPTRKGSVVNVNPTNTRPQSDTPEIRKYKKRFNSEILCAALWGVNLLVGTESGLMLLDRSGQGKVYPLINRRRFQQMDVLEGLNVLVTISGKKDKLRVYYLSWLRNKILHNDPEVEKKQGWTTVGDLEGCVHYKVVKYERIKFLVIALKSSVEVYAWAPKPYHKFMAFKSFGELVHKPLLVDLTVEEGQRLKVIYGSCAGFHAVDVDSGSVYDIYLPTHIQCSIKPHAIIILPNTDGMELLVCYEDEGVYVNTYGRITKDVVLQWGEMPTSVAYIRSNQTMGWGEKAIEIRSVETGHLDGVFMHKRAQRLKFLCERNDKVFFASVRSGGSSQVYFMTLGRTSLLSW
Chain of Kdr (P35968 20-1356): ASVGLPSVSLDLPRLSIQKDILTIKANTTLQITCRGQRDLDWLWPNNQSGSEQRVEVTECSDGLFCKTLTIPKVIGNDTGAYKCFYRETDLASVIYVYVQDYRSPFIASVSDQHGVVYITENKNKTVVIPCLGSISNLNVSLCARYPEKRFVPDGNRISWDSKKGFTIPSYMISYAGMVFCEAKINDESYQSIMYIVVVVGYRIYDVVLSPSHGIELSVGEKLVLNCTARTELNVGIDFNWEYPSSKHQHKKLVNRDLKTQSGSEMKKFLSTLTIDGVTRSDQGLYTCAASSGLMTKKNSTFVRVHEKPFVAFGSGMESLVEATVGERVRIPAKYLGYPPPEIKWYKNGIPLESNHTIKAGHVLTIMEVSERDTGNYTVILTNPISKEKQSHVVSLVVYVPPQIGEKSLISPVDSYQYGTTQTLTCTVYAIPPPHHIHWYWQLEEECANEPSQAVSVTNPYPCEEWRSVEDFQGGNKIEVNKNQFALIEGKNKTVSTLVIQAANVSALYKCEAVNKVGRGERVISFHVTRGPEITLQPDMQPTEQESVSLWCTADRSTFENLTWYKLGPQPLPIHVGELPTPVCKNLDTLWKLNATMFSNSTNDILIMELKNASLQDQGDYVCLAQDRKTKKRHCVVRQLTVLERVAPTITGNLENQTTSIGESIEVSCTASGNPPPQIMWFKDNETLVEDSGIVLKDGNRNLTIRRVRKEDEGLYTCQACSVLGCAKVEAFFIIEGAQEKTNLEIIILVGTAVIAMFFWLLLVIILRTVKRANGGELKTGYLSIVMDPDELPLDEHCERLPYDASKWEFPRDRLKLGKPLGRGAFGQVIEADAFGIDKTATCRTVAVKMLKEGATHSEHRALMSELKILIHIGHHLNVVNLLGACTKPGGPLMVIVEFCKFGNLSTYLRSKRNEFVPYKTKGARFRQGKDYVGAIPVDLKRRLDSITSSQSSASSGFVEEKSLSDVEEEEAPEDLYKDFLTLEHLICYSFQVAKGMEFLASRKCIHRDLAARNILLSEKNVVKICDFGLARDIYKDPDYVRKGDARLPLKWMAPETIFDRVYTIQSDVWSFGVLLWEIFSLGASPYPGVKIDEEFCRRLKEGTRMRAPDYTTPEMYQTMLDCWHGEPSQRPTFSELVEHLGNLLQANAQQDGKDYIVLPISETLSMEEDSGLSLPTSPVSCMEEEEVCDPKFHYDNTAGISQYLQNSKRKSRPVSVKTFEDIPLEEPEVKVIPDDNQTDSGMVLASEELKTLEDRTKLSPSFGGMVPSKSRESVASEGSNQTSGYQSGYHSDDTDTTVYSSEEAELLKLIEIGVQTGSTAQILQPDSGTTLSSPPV

O=C(c1cccc(NS(=O)(=O)c2cccnc2)c1)c1c[nH]c2ncc(Cl)cc12 [P-2146, Pyridine-3-sulfonic acid [3-(5-chloro-1H-pyrrolo[2,3-b]pyridine-3-carbonyl)-phenyl]-amide]
≤ 10 µM: Kdr | MAP4K4

Cc1cc(C)cc(S(=O)(=O)Nc2ccc(F)c(C(=O)c3c[nH]c4ncc(Cl)cc34)c2F)c1 [P-2004, N-[3-(5-Chloro-1H-pyrrolo[2,3-b]pyridine-3-carbonyl)-2,4-difluoro-phenyl]-3,5-dimethyl-benzenesulfonamide]
not listed: MAP4K4
≤ 10 µM: all other assays above

O=C(c1c(F)ccc(NS(=O)(=O)c2cccnc2)c1F)c1c[nH]c2nccc(Cl)c12 [P-2074, Pyridine-3-sulfonic acid [3-(4-chloro-1H-pyrrolo[2,3-b]pyridine-3-carbonyl)-2,4-difluoro-phenyl]-amide]
≤ 10 µM: Src | MAP4K4

O=C(c1c(F)ccc(NS(=O)(=O)c2ccc(F)cc2)c1F)c1c[nH]c2nccc(Cl)c12 [P-2026, N-[3-(4-Chloro-1H-pyrrolo[2,3-b]pyridine-3-carbonyl)-2,4-difluoro-phenyl]-4-fluoro-benzenesulfonamide]
not listed: Fms
≤ 10 µM: all other assays above

CCCS(=O)(=O)Nc1ccc(F)c(C(=O)c2c[nH]c3ncc(-c4ccc(S(=O)(=O)C(C)C)cc4)cc23)c1F [P-2223, Propane-1-sulfonic acid (2,4-difluoro-3-{5-[4-(propane-2-sulfonyl)-phenyl]-1H-pyrrolo[2,3-b]pyridine-3-carbonyl}-phenyl)-amide]
not listed: Fms
≤ 10 µM: all other assays above

Cc1cnc2[nH]cc(C(=O)c3cccc(NS(=O)(=O)C4CCCC4)c3)c2c1 [P-2459, Cyclopentanesulfonic acid [3-(5-methyl-1H-pyrrolo[2,3-b]pyridine-3-carbonyl)-phenyl]-amide]
≤ 10 µM: Kdr | Kit | MAP4K4

CCCS(=O)(=O)Nc1ccc(F)c(C(=O)c2c[nH]c3ncc(-c4cnc(N5CCCC5)nc4)cc23)c1F [P-2219, Propane-1-sulfonic acid {2,4-difluoro-3-[5-(2-pyrrolidin-1-yl-pyrimidin-5-yl)-1H-pyrrolo[2,3-b]pyridine-3-carbonyl]-phenyl}-amide]
not listed: Fms | Kit
≤ 10 µM: all other assays above

COc1ccc(S(=O)(=O)Nc2ccc(F)c(C(=O)c3c[nH]c4ncc(Cl)cc34)c2F)cc1F [P-2005, N-[3-(5-Chloro-1H-pyrrolo[2,3-b]pyridine-3-carbonyl)-2,4-difluoro-phenyl]-3-fluoro-4-methoxy-benzenesulfonamide]
not listed: MAP4K4
≤ 10 µM: all other assays above

CCCS(=O)(=O)Nc1ccc(F)c(C(=O)c2c[nH]c3ncc(-c4ccc(S(=O)(=O)NC)cc4)cc23)c1F [P-2167, 4-{3-[2,6-Difluoro-3-(propane-1-sulfonylamino)-benzoyl]-1H-pyrrolo[2,3-b]pyridin-5-yl}-N-methyl-benzenesulfonamide]
not listed: MAP4K4
≤ 10 µM: all other assays above

CCS(=O)(=O)Nc1ccc(F)c(C(=O)c2c[nH]c3ncc(-c4ccc(Cl)cc4)cc23)c1F [P-2269, Ethanesulfonic acid {3-[5-(4-chloro-phenyl)-1H-pyrrolo[2,3-b]pyridine-3-carbonyl]-2,4-difluoro-phenyl}-amide]
≤ 10 µM: Kdr | MAP4K4

CCCS(=O)(=O)Nc1ccc(F)c(C(=O)c2c[nH]c3ncc(-c4cccc(O)c4)cc23)c1F [P-2179, Propane-1-sulfonic acid {2,4-difluoro-3-[5-(3-hydroxy-phenyl)-1H-pyrrolo[2,3-b]pyridine-3-carbonyl]-phenyl}-amide]
not listed: MAP4K4
≤ 10 µM: all other assays above

O=C(O)CCc1cccc(-c2cnc3[nH]cc(C(=O)c4cccc(NS(=O)(=O)C5CCCC5)c4)c3c2)c1 [P-2466, 3-{3-[3-(3-Cyclopentanesulfonylamino-benzoyl)-1H-pyrrolo[2,3-b]pyridin-5-yl]-phenyl}-propionic acid]
≤ 10 µM: B-Raf V600E | Kdr | Kit | Src | MAP4K4

CCCS(=O)(=O)Nc1ccc(F)c(C(=O)c2c[nH]c3ncc(-c4ccc(S(=O)(=O)N5CCOCC5)cc4)cc23)c1F [P-2166, Propane-1-sulfonic acid (2,4-difluoro-3-{5-[4-(morpholine-4-sulfonyl)-phenyl]-1H-pyrrolo[2,3-b]pyridine-3-carbonyl}-phenyl)-amide]
not listed: MAP4K4
≤ 10 µM: all other assays above

Cc1cc(F)ccc1S(=O)(=O)Nc1ccc(F)c(C(=O)c2c[nH]c3ncc(Cl)cc23)c1F [P-2006, N-[3-(5-Chloro-1H-pyrrolo[2,3-b]pyridine-3-carbonyl)-2,4-difluoro-phenyl]-4-fluoro-2-methyl-benzenesulfonamide]
not listed: MAP4K4
≤ 10 µM: all other assays above

O=C(c1c(F)ccc(NS(=O)(=O)c2ccc3c(c2)CCO3)c1F)c1c[nH]c2ncc(Cl)cc12 [P-2007, 2,3-Dihydro-benzofuran-5-sulfonic acid [3-(5-chloro-1H-pyrrolo[2,3-b]pyridine-3-carbonyl)-2,4-difluoro-phenyl]-amide]
not listed: Kdr | MAP4K4
≤ 10 µM: all other assays above

CN1CCOc2cc(S(=O)(=O)Nc3ccc(F)c(C(=O)c4c[nH]c5ncc(Cl)cc45)c3F)ccc21 [P-2001, 4-Methyl-3,4-dihydro-2H-benzo[1,4]oxazine-7-sulfonic acid [3-(5-chloro-1H-pyrrolo[2,3-b]pyridine-3-carbonyl)-2,4-difluoro-phenyl]-amide]
not listed: MAP4K4 | B-Raf V600E
≤ 10 µM: all other assays above

CCS(=O)(=O)Nc1ccc(F)c(C(=O)c2c[nH]c3nccc(OC)c23)c1F [P-2279, Ethanesulfonic acid [2,4-difluoro-3-(4-methoxy-1H-pyrrolo[2,3-b]pyridine-3-carbonyl)-phenyl]-amide]
≤ 10 µM: B-Raf | B-Raf V600E | Kdr | C-Raf | MAP4K4

CCCS(=O)(=O)Nc1ccc(F)c(C(=O)c2c[nH]c3ncc(-c4ccc(S(=O)(=O)N(C)C)cc4)cc23)c1F [P-2185, 4-{3-[2,6-Difluoro-3-(propane-1-sulfonylamino)-benzoyl]-1H-pyrrolo[2,3-b]pyridin-5-yl}-N,N-dimethyl-benzenesulfonamide]
not listed: MAP4K4
≤ 10 µM: all other assays above

CCCS(=O)(=O)Nc1ccc(F)c(C(=O)c2c[nH]c3ncc(-c4ccc(F)nc4)cc23)c1F [P-2155, Propane-1-sulfonic acid {2,4-difluoro-3-[5-(6-fluoro-pyridin-3-yl)-1H-pyrrolo[2,3-b]pyridine-3-carbonyl]-phenyl}-amide]
not listed: MAP4K4
≤ 10 µM: all other assays above

Reference: US20120122860A1, “SOLID FORMS OF SULFONAMIDES AND AMINO ACIDS” (Plexxikon, Inc., priority 2009, published 2012)
